Measured values taken from US9029337B2, “Modulation of factor 7 expression” (Isis Pharmaceuticals, Inc., priority 2007, dated 2015).
Strand notation (5' to 3'): a small letter for the sugar, then the base; units joined by * are phosphorothioate-linked, units joined directly phosphodiester-linked; [ ] holds rarer units or linkages, { } end groups; capitals alone tell only the bases. e = 2'-O-(2-methoxyethyl) (MOE); [5mC] = 5-methylcytosine; d = 2'-deoxy (DNA)

Experiments:
[1] = tested on: BALB/c mice; test: Tail bleeding assay; format: in vivo, mouse; conditions: mouse, in vivo, sc
Procedure: Mice not receiving treatment with FeCl3 solution were evaluated in a tail bleeding chamber. Mice were placed into the bleeding chamber two days after the final treatment of ISIS 403102 or PBS. Mice were anesthetized in the chamber with isofluorane and a small piece of tail (approximately 4 mm from the tip) was cut with sterile scissors. The cut tail was immediately placed in a 15 mL Falcon tube filled with approximately 10 mL of 0.9% NaCl buffer solution warmed to 37° C. The blood was collected over the course of 40 minutes. The saline filled tubes were weighed both before and after bleeding.
Tail-bleeding was measured to observe whether treatment with ISIS 403102 or warfarin causes internal hemorrhage in mice. ISIS 403102 and warfarin (Coumadin®) were evaluated in the tail bleeding assay. Six groups of BALB/c mice were treated with 1.25 mg/kg, 2.5 mg/kg, 5 mg/kg, 10 mg/kg, 20 mg/kg, or 40 mg/kg of ISIS 403102, administered subcutaneously twice a week for 3 weeks. An additional 6 groups of BALB/c mice were treated with 0.5 mg/kg, 1 mg/kg, 2 mg/kg, 3 mg/kg, 4 mg/kg, and 5 mg/kg of warfarin, administered intraperioneally daily for 6 days. A separate control group of BALB/c mice was treated with PBS, administered subcutaneously twice a week for 3 weeks.
Two days after the final treatment of ISIS 403102, warfarin, or PBS, mice were placed in a tail bleeding chamber. Mice were anesthetized in the chamber with isofluorane and a small piece of tail (approximately 4 mm from the tip) was cut with sterile scissors. The cut tail was immediately placed in a 15 mL Falcon tube filled with approximately 10 mL of 0.9% NaCl buffer solution warmed to 37° C. The blood was collected over the course of 40 minutes. The saline filled tubes were weighed both before and after bleeding.
ISIS 403102 and Apixaban were evaluated in BALB/c mice. In a first group of BALB/c mice, 40 mg/kg of ISIS 403102 was administered subcutaneously twice a week for 3 weeks. An additional 3 groups of BALB/c mice were treated with 5 mg/kg and 10 mg/kg of Apixaban, administered in a single intraperitoneal dose, and 10 mg/kg of Apixaban administered as a single subcutaneous dose. A control group of BALB/c mice was treated with PBS, administered subcutaneously twice a week for 3 weeks.
Two days after the final treatment of ISIS 403102 or PBS, mice were placed in a tail bleeding chamber. Mice from the groups treated with Apixaban were analyzed 30 minutes after the single dose. Mice were anesthetized in the chamber with isofluorane and a small piece of tail (approximately 4 mm from the tip) was cut with sterile scissors. The cut tail was immediately placed in a 15 mL Falcon tube filled with approximately 10 mL of 0.9% NaCl buffer solution warmed to 37° C. The blood was collected over the course of 40 minutes. The saline filled tubes were weighed before and after bleeding.

[2] = tested on: human Factor 7 mRNA; test: Antisense inhibition of human Factor 7 mRNA in HepB3 cells, 50 nM antisense oligonucleotide, lipofectin; format: cell-based; conditions: for % Inhibition of human Factor 7 mRNA levels: gapmers targeted to nucleobases 4868 to 4899 of SEQ ID NO: 1, Table 8
In short: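 4,000 cells/well; ~24 h exposure; RNA isolated; probe set RTS 2927; normalised to RIBOGREEN® total RNA; % inhibition vs untreated.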

[3] = tested on: human Factor 7 mRNA; test: Dose-dependent antisense inhibition of human Factor 7 in HepB3 cells, lipofectin; format: cell-based; conditions: HepB3 cells, approx. 16 hours (Table 14)
In short: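 HepB3 cells (4,000/well) lipofectin-transfected with antisense oligonucleotide at 3.125 or 6.25 up to 100 nM for ~16 h. Factor 7 mRNA measured by real-time RT-PCR with primer probe set RTS 2927, adjusted to RIBOGREEN total RNA; expressed as percent inhibition versus untreated control cells.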

[4] = tested on: human Factor 7 mRNA; test: Dose-dependent antisense inhibition of human Factor 7 in HepB3 cells, electroporation; format: cell-based
In short: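 HepB3 cells, 20,000/well, electroporated with gapmers at 3.125–100 μM; about 16 h treatment. Factor 7 mRNA by qRT-PCR with primer probe set RTS 2927, normalized to RIBOGREEN total RNA; percent inhibition versus untreated cells.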

[5] = 3.125 μM, approx. 16 hours (Table 15, Example 7)
[6] = 6.25 μM, approx. 16 hours (Table 15, Example 7)
[7] = 12.5 μM, approx. 16 hours (Table 15, Example 7)
[8] = 25 μM, approx. 16 hours (Table 15, Example 7)
[9] = 50 μM, approx. 16 hours (Table 15, Example 7)
[10] = 100 μM, approx. 16 hours (Table 15, Example 7)
[11] = oligonucleotides targeted to nucleobases 13760 to 13789 of SEQ ID NO: 1 (Table 10)

Substance	% Inhibition of human Factor 7 mRNA levels [2]	percent inhibition of Factor 7 mRNA, relative to untreated control cells ([3]; 3.125 nM)	percent inhibition of Factor 7 mRNA, relative to untreated control cells ([3]; 12.5 nM)	percent inhibition of Factor 7 mRNA, relative to untreated control cells ([3]; 25 nM)	percent inhibition of Factor 7 mRNA, relative to untreated control cells ([3]; 50 nM)	percent inhibition of Factor 7 mRNA, relative to untreated control cells ([3]; 100 nM)	percent inhibition of Factor 7 mRNA, relative to untreated control cells [3]	percent inhibition of Factor 7 mRNA, relative to untreated control cells [4, 5]	percent inhibition of Factor 7 mRNA, relative to untreated control cells [4, 6]	percent inhibition of Factor 7 mRNA, relative to untreated control cells [4, 7]	percent inhibition of Factor 7 mRNA, relative to untreated control cells [4, 8]	percent inhibition of Factor 7 mRNA, relative to untreated control cells [4, 9]	percent inhibition of Factor 7 mRNA, relative to untreated control cells [4, 10]	% Inhibition (human Factor 7 mRNA levels) [2, 11]	also measured
403102 (antisense CCATAGAACAGCTTCACAGG; chemistry not given here) [compound 403102]															Blood (g), tail bleeding ([1]; 25 mg/kg): 0.06 g; Blood (g), tail bleeding ([1]; 37.5 mg/kg): 0.06 g; Blood (g), tail bleeding ([1]; 50 mg/kg): 0.10 g
422296 (antisense e[5mC]*e[5mC]*dG*dA*dG*dT*dT*d[5mC]*dT*dG*d[5mC]*dA*dG*dG*dA*eG*e[5mC]*eG*eG*e[5mC]) [compound 422296]	74%	21%	39%	67%	78%	82%	27%	62%	40%	56%	56%	82%	84%		percent inhibition of Factor 7 mRNA, relative to untreated control cells ([4]; 3.125 μM, approx. 16 hours (Table 16, Example 8 confirmation)): 47%; percent inhibition of Factor 7 mRNA, relative to untreated control cells ([4]; 6.25 μM, approx. 16 hours (Table 16, Example 8 confirmation)): 44%; percent inhibition of Factor 7 mRNA, relative to untreated control cells ([4]; 12.5 μM, approx. 16 hours (Table 16, Example 8 confirmation)): 70%; percent inhibition of Factor 7 mRNA, relative to untreated control cells ([4]; 25 μM, approx. 16 hours (Table 16, Example 8 confirmation)): 78%; percent inhibition of Factor 7 mRNA, relative to untreated control cells ([4]; 50 μM, approx. 16 hours (Table 16, Example 8 confirmation)): 80%; percent inhibition of Factor 7 mRNA, relative to untreated control cells ([4]; 100 μM, approx. 16 hours (Table 16, Example 8 confirmation)): 82%
422215 (antisense eG*eT*eT*d[5mC]*dT*dG*d[5mC]*dA*dG*dG*dA*dG*d[5mC]*dG*dG*d[5mC]*d[5mC]*eT*eA*eA) [compound 422215]	73%	13%	54%	65%	84%	82%	30%	11%	9%	31%	50%	68%	84%		
422252 (antisense e[5mC]*eG*d[5mC]*d[5mC]*dG*dG*d[5mC]*dT*d[5mC]*dT*dG*d[5mC]*dT*d[5mC]*dA*eT*e[5mC]*e[5mC]*e[5mC]*e[5mC]) [compound 422252]		18%	45%	61%	77%	87%	17%	23%	12%	26%	38%	58%	80%	70%	
422177 (antisense e[5mC]*e[5mC]*e[5mC]*dG*d[5mC]*d[5mC]*dG*dG*d[5mC]*dT*d[5mC]*dT*dG*d[5mC]*dT*d[5mC]*dA*eT*e[5mC]*e[5mC]) [compound 422177]		12%	44%	64%	81%	88%	24%	3%	10%	29%	21%	31%	63%	74%	
422096 (antisense eA*eG*eA*e[5mC]*eA*dA*dT*dG*dG*dT*d[5mC]*dA*dG*dG*dG*e[5mC]*eT*eG*eG*eT) [compound 422096]		17%	43%	60%	68%	82%	23%	26%	30%	46%	50%	62%	85%		% Inhibition (human Factor 7 mRNA levels) ([2]; oligonucleotides targeted to nucleobases 11830 to 11869 of SEQ ID NO: 1 (Table 9)): 76%
